This is an account of results in patent US20110144018A1, “AGENT FOR PROPHYLAXIS OF REFLEX SYMPATHETIC DYSTROPHY AFTER CEREBRAL APOPLEXY” (priority 2006, published 2011).

Test [1] deals with patients with hemiplegia attributed to cerebrovascular disease (stroke) who developed RSD (shoulder-hand syndrome). Description: Test of treatment of post-stroke RSD. Format: in vivo, human. The settings on record: therapeutic administration group. Here is the method: EL was administered after the onset of RSD (shoulder-hand syndrome) in the same use and dose as in Example 1 to 11 patients with hemiplegia attributed to cerebrovascular disease (stroke) at Brunnstrom stage III or lower in either the upper limb or a finger on admission, who developed RSD (shoulder-hand syndrome). These patients were classified into a therapeutic administration group. On the other hand, the EL administration group of Example 1 was compared as a control (preventive administration group) with the therapeutic administration group.

Test [2] relates to patients with hemiplegia attributed to cerebrovascular disease (stroke), post-stroke RSD (shoulder-hand syndrome). Kind of test: Test of prevention of onset of post-stroke RSD. The format is in vivo, human. The text has this:
Test subjects were 33 patients with hemiplegia attributed to cerebrovascular disease (stroke) at Brunnstrom stage III or lower in either the upper limb or a finger on admission. Patients already developing RSD (shoulder-hand syndrome) on admission and patients with pain in the shoulder joint or swollen paralyzed limbs were excluded from the test. […] On the other hand, 21 test subjects were classified into a rehabilitation alone group (control group) and compared with the EL administration group. Physical therapy and therapeutic exercise, occupational therapy, and the management of the paralyzed limbs were performed thoroughly in all the cases. […] EL administration was initiated 11 to 59 days after an attack of stroke (25.8 days on average) and continued until 5 months after the attack of stroke. The same observation period was applied to the control group. The test subjects were diagnosed as developing RSD (shoulder-hand syndrome) if they had diffuse pain not localized to the shoulder joint, edema involving skin color changes, skin temperature abnormalities, and range of motion limitations, and the practice of their rehabilitation was restricted. These criteria agreed to Veldman's diagnostic criteria or diagnostic criteria, for CRPS-type 1 provided by the International Association for the Study of Pain.
Activities of daily living (ADL) were evaluated on the basis of the Barthel Index (BI) and the range of motion (ROM) of shoulder joint. The movable range of shoulder joint (also referred to as “shoulder ROM”) was regarded as restricted (Shoulder-ROM-restrictions were present.) if either abduction or flexion was restricted in measurement. The test subjects were also examined for sensory impairment, aphasia, and unilateral spatial neglect on admission.
Statistical analysis was conducted with unpaired t-test, Fisher's exact test, or Wilcoxon test, and 5% or lower significance level was regarded as being significant.

Test [3] deals with RSD triggered and developed by a trauma or surgical invasion. The following applies: clinical; cited from earlier work.
The mark [4] stands for this setting: EL preventive administration group, 12 cases, 20 units i.m. once a week until 5 months after attack.

For the compound “1-butyric acid-7-(L-2-aminobutyric acid)-26-L-aspartic acid-27-L-valine-29-L-alanine-calcitonin [EL]”, in test [1], the “Barthel index at completion of EL administration compared with preventive administration group” value is given as “significantly low”; the “Diffuse pain, shoulder joint pain and progression of range of motion restrictions” value was “slightly suppressed”; the “Suppression of the symptoms of RSD” value is “could not be suppressed completely in any case”. The “Incidence of RSD converted to all patients with hemiplegia attributed to stroke in the facility” value in test [2] (EL administration group) is “approximately 1.3%”. In addition, in test [2] (EL administration initiated within 48 days after stroke), the “Incidence of RSD” value came to 0%. In test [2] (EL preventive administration group, 1 of 12 cases), the “Incidence of RSD (cases developing RSD)” value is 8.3%. For the same compound, in test [2] (setting [4]), the “Number of test subjects developing post-stroke RSD (Developed)” value worked out at 1 and the “Number of test subjects not developing post-stroke RSD (Not developed)” value came out at 11. In addition, the “No RSD, the number of persons” value in test [2] (preventive administration group, at completion of administration) is reported as 11. For the same compound, in test [2] (repetitive administration to stroke hemiplegia patients without RSD on admission), the “Incidence of RSD until discharge from hospital versus unadministered patient group” value was “suppressed significantly and remarkably”.

For the compound `O=C1O[C@H]([C@@H](O)CO)C(O)=C1O` [vitamin C], in test [3], the “Effect on initial onset of RSD” value is “preventive effect”.
